Experimental data: patent US12338256B2, “Aza-tetracyclic oxazepine compounds and uses thereof” (Genentech, Inc., priority 2022, dated 2025)
Where two headings read alike, the source gives them in different places.

Tests used:
KRAS G12D = KRAS G12D (Homo sapiens, UniProt P01116, G12D); experiment: KRAS G12D LoEnz Biochemical Assay, BODIPY-GDP Exchange TR-FRET (Example 500); settings: read-out: KRas (G12D) GDP HTRF IC50
Procedure: Example 500: KRAS G12D LoEnz Biochemical Assay, BODIPY-GDP Exchange TR-FRET. Biochemical compound potencies are assessed by evaluating inhibition of SOS1-mediated nucleotide exchange in KRAS G12D. In this assay, the SOS1-promoted exchange of fluorescently-labeled GDP (BOPIDY-GDP) is monitored by time-resolved fluorescence resonance energy transfer (TR-FRET). Compounds solubilized in DMSO are dispensed as concentration series into 384-well white assay plates. A preformed complex of biotin-tagged recombinant human KRAS (0.06 nM mutant G12D) and 0.06 nM terbium-labeled streptavidin (CisBIO) prepared in 10 uL/well assay buffer (20 mM HEPES, pH 7.5, 50 mM NaCl, 10 mM MgCl2, 0.01% Tween-20 and 1 mM dithiothreitol) is added and allowed to incubate for 10-minutes at room temperature. The reaction is initiated with the addition of 5 uL 300 nM recombinant human SOS1 and 300 nM BODIPY-GDP in assay buffer. After a 120-minute incubation, the fluorescence is measured with excitation at 337 nm and emission at 490 and 520 nm. The TR-FRET ratio is determined as the fluorescence at 520 nm divided by the fluorescence at 490 nm multiplied by 10,000. The results are normalized to percent inhibition based on control samples: DMSO (0% inhibition) and control compound at a concentration that inhibits completely (100% inhibition). The normalized TR-FRET results are plotted against compound concentration, and the data are fit to a 4-parameter Hill equation to determine the IC50 values.

[1] = system: AsPC-1 (homozygous mutant KRAS G12D human pancreatic cell line); experiment: KRAS 3D-Cell Proliferation Assay, AsPC-1 (Example 503); assay type: cell-based; settings: Homo sapiens, ASPC1, 168 h, AsPC-1 3D culture, 7 days, CellTiter-Glo 3D; read-out: Prolif AsPC-1 3D ATP IC50
Procedure, shortened: (§1)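 KRAS G12D homozygous pancreatic lines and KRAS wild-type lung lines grown as 3D cultures in ultra-low-attachment wells in RPMI-1640/10% FBS, dosed after overnight with compound dilution series (0.3% DMSO final) for 7 days at 37 °C. ATP read by CellTiter-Glo 3D luminescence; IC50 from 4-parameter Hill fit, normalized to DMSO and 1 μM staurosporine.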

[2] = system: HPAC (homozygous mutant KRAS G12D human pancreatic cell line); experiment: KRAS 3D-Cell Proliferation Assay, HPAC (Example 503); assay type: cell-based; settings: Homo sapiens, HPAC, 168 h, HPAC 3D culture, 7 days, CellTiter-Glo 3D; read-out: Prolif HPAC 3D ATP IC50
Procedure, shortened: as §1

[3] = system: PC-9 (KRAS wild type human lung adenocarcinoma cell line); experiment: KRAS 3D-Cell Proliferation Assay, PC-9 (Example 503); assay type: cell-based; settings: 168 h, PC-9 3D culture, 7 days, CellTiter-Glo 3D, read-out: Prolif PC9 3D ATP IC50
Procedure, shortened: as §1

[4] = system: H1975 (KRAS wild type human lung adenocarcinoma cell line); experiment: KRAS 3D-Cell Proliferation Assay, H1975 (Example 503); assay type: cell-based; settings: Homo sapiens, NCI-H1975, 168 h, H1975 3D culture, 7 days, CellTiter-Glo 3D; read-out: Prolif H1975 3D ATP IC50
Procedure, shortened: as §1

[5] = SOS1-mediated BODIPY-GDP exchange TR-FRET

KRAS G12D, sequence (P01116 1-188 isoform P01116-2 G12D): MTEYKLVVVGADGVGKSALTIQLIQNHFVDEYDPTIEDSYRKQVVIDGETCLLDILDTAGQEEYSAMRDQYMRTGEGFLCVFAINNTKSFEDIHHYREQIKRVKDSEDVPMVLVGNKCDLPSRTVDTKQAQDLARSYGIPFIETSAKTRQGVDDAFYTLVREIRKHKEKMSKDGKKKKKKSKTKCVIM

SMILES	IC50 (KRAS G12D; BODIPY-GDP exchange) [nM]	IC50 (KRAS G12D; [5]) [nM]	IC50 [1] [nM]	IC50 [2] [nM]	IC50 [3] [nM]	IC50 [4] [nM]
Cc1c(F)c(N)cc(-c2nc3c4c(nc(OC[C@]5(CN6CC7(COC7)C6)CC5(F)F)nc4c2F)N2C[C@H]4CC[C@H](N4)[C@H]2[C@H](C)O3)c1C(F)(F)F (single isomer, unassigned) [165 b]	0.1	–	–	–	–	–
Cc1cc(N)c(Cl)c(-c2nc3c4c(nc(OC[C@@]56CCCN5C[C@H](F)C6)nc4c2Cl)N2C[C@H]4CC[C@H](N4)[C@H]2[C@H](C)O3)c1C(F)(F)F (single isomer, unassigned) [240 (atrop. 1)]	–	44.9	–	–	–	–
Cc1cc(N)c(Cl)c(-c2nc3c4c(nc(OC[C@@]56CCCN5C[C@H](F)C6)nc4c2Cl)N2C[C@H]4CC[C@H](N4)[C@H]2[C@H](C)O3)c1C(F)(F)F (single isomer, unassigned) [240 (atrop. 2)]	–	0.14	1.5	–	–	–
Cc1cc(N)cc(-c2nc3c4c(nc(OC[C@]56CCN5CC(F)(F)C6)nc4c2F)N2C[C@H]4CC[C@H](N4)[C@H]2[C@H](C)O3)c1C(F)(F)F [Compound 60, 3-((5S,5aS,6S,9R)-12-(((R)-3,3-Difluoro-1-azabicyclo[3.2.0]heptan-5-yl)methoxy)-1-fluoro-5-methyl-5a,6,7,8,9,10-hexahydro-5H-4-oxa-3,10a,11,13,14-pentaaza-6,9-methanonaphtho[1,8-ab]heptalen-2-yl)-5-methyl-4-(trifluoromethyl)aniline]	–	–	3.48	2.59	16500	720
Cc1c(F)c(N)cc(-c2nc3c4c(nc(OC[C@@H]5CC(F)(F)CN5C)nc4c2F)N2C[C@H]4CC[C@H](N4)[C@H]2[C@H](C)O3)c1C(F)(F)F [Compound 65, 5-((5S,5aS,6S,9R)-12-(((S)-4,4-Difluoro-1-methylpyrrolidin-2-yl)methoxy)-1-fluoro-5-methyl-5a,6,7,8,9,10-hexahydro-5H-4-oxa-3,10a,11,13,14-pentaaza-6,9-methanonaphtho[1,8-ab]heptalen-2-yl)-2-fluoro-3-methyl-4-(trifluoromethyl)aniline]	–	–	64.3	19.6	7530	7960
Cc1c(F)c(N)cc(-c2nc3c4c(nc(OC[C@H]5CC(F)(F)CN5C)nc4c2F)N2C[C@H]4CC[C@H](N4)[C@H]2[C@H](C)O3)c1C(F)(F)F [Compound 66, 5-((5S,5aS,6S,9R)-12-(((R)-4,4-difluoro-1-methylpyrrolidin-2-yl)methoxy)-1-fluoro-5-methyl-5a,6,7,8,9,10-hexahydro-5H-4-oxa-3,10a,11,13,14-pentaaza-6,9-methanonaphtho[1,8-ab]heptalen-2-yl)-2-fluoro-3-methyl-4-(trifluoromethyl)aniline]	–	–	41.4	27.6	4780	7150
Cc1c(F)c(N)cc(-c2nc3c4c(nc(OC[C@@]56CCCN5C[C@H](F)C6)nc4c2F)N2C[C@H]4CC[C@H](N4)[C@H]2[C@H](C)O3)c1Cl [Compound 76, 4-Chloro-2-fluoro-5-((5S,5aS,6S,9R)-1-fluoro-12-(((2R,7aS)-2-fluorotetrahydro-1H-pyrrolizin-7a(5H)-yl)methoxy)-5-methyl-5a,6,7,8,9,10-hexahydro-5H-4-oxa-3,10a,11,13,14-pentaaza-6,9-methanonaphtho[1,8-ab]heptalen-2-yl)-3-methylaniline]	–	–	14.1	4.62	5710	248
C[C@@H]1Oc2nc(-c3cc(N)nc4ccccc34)c(F)c3nc(OC[C@]45CCN4CC(F)(F)C5)nc(c23)N2C[C@H]3CC[C@H](N3)[C@@H]12 [Compound 79, 4-((5S,5aS,6S,9R)-12-(((R)-3,3-Difluoro-1-azabicyclo[3.2.0]heptan-5-yl)methoxy)-1-fluoro-5-methyl-5a,6,7,8,9,10-hexahydro-5H-4-oxa-3,10a,11,13,14-pentaaza-6,9-methanonaphtho[1,8-ab]heptalen-2-yl)quinolin-2-amine]	22.7	–	4040	–	≥ 20000	–
C=C1CN2CCC[C@@]2(COc2nc3c4c(nc(-c5cc(O)cc6cccc(CC)c56)c(F)c4n2)O[C@@H](C)[C@@H]2[C@@H]4CC[C@H](CN32)N4)C1 [Compound 80, 5-Ethyl-4-((5S,5aS,6S,9R)-1-fluoro-5-methyl-12-(((S)-2-methylenetetrahydro-1H-pyrrolizin-7a(5H)-yl)methoxy)-5a,6,7,8,9,10-hexahydro-5H-4-oxa-3,10a,11,13,14-pentaaza-6,9-methanonaphtho[1,8-ab]heptalen-2-yl)naphthalen-2-ol]	–	–	5.08	2.76	4050	924
C#Cc1c(F)ccc2cc(O)cc(-c3nc4c5c(nc(OC[C@@]67CCCN6C[C@H](F)C7)nc5c3F)N3C[C@H]5CC[C@H](N5)[C@H]3CO4)c12 [Compound 81, 5-Ethynyl-6-fluoro-4-((5aS,6S,9R)-1-fluoro-12-(((2R,7aS)-2-fluorotetrahydro-1H-pyrrolizin-7a(5H)-yl)methoxy)-5a,6,7,8,9,10-hexahydro-5H-4-oxa-3,10a,11,13,14-pentaaza-6,9-methanonaphtho[1,8-ab]heptalen-2-yl)naphthalen-2-ol]	–	–	14.7	12.4	≥ 20000	4780
C[C@@H]1Oc2nc(-c3nc(N)c(F)cc3C(F)(F)F)c(F)c3nc(OC[C@@]45CCCN4CC4(CC4(F)F)C5)nc(c23)N2C[C@H]3CC[C@H](N3)[C@@H]12 (stereo partly drawn) [Compound 86, 6-((5S,5aS,6S,9R)-12-(((7a′S)-2,2-difluorodihydro-1′H,3′H-spiro[cyclopropane-1,2′-pyrrolizin]-7a′(5′H)-yl)methoxy)-1-fluoro-5-methyl-5a,6,7,8,9,10-hexahydro-5H-4-oxa-3,10a,11,13,14-pentaaza[6,9]methanonaphtho[1,8-ab]heptalen-2-yl)-3-fluoro-5-(trifluoromethyl)pyridin-2-amine]	–	–	144	126	8750	5430
C[C@@H]1Oc2nc(-c3nc(N)c(F)cc3C(F)(F)F)c(F)c3nc(OC[C@]45CCN4CC(F)(F)C5)nc(c23)N2C[C@H]3CC[C@H](N3)[C@@H]12 [Compound 87, 6-((5S,5aS,6S,9R)-12-(((R)-3,3-Difluoro-1-azabicyclo[3.2.0]heptan-5-yl)methoxy)-1-fluoro-5-methyl-5a,6,7,8,9,10-hexahydro-5H-4-oxa-3,10a,11,13,14-pentaaza-6,9-methanonaphtho[1,8-ab]heptalen-2-yl)-3-fluoro-5-(trifluoromethyl)pyridin-2-amine]	–	–	4030	1400	≥ 20000	20000
Cc1c(F)c(N)cc(-c2nc3c4c(nc(OC[C@@]56CCCN5C[C@H](F)C6)nc4c2F)N2C[C@H]4CC[C@H](N4)[C@H]2[C@@H](C(F)(F)F)O3)c1C(F)(F)F [Compound 246, 2-Fluoro-5-((5S,5aS,6S,9R)-1-fluoro-12-(((2R,7aS)-2-fluorotetrahydro-1H-pyrrolizin-7a(5H)-yl)methoxy)-5-(trifluoromethyl)-5a,6,7,8,9,10-hexahydro-5H-4-oxa-3,10a,11,13,14-pentaaza-6,9-methanonaphtho[1,8-ab]heptalene-2-yl)-3-methyl-4-(trifluoromethyl)aniline]	–	311	–	2000	–	20000
Cc1nc(N)cc(-c2nc3c4c(nc(OCC5(CN6CC7COCC(C6)C7(F)F)CC5)nc4c2F)N2C[C@H]4CC[C@H](N4)[C@H]2[C@H](C)O3)c1C(F)(F)F [Compound 266, 4-((5S,5aS,6S,9R)-12-((1-((9,9-difluoro-3-oxa-7-azabicyclo[3.3.1]nonan-7-yl)methyl)cyclopropyl)methoxy)-1-fluoro-5-methyl-5a,6,7,8,9,10-hexahydro-5H-4-oxa-3,10a,11,13,14-pentaaza-6,9-methanonaphtho[1,8-ab]heptalene-2-yl)-6-methyl-5-(trifluoromethyl)pyridin-2-amine]	–	3.05	–	–	–	–
